How the values were obtained:
[1] = test system: STAT1 in MDA-MB-468 cells; assay: Activated STAT1 DNA binding assay (ELISA); format: cell-based, human; conditions: IFNγ 100 ng/ml
Description: FIG. 19. YK5 enhances the nuclear content of IFNγ activated STAT1 and potentiates its binding to DNA. MDAMB-468 cells were treated with IFNγ (100 ng/ml) or co-treated with IFNγ (100 ng/ml) and YK5 (10 μM). (a) Activated STAT1 (pTyr701), was determined by immunofluorescent microscopy with a secondary antibody conjugated with FITC. Nuclear staining was performed with DAPI. (b) Activated STAT1 binding to STAT consensus binding site (5′-[…]-3′) was determined by an ELISA-based assay. Activated STAT1, contained in lysates from untreated (white bar), treated with YK5 (light grey bar), IFNγ (dark grey bars) or the combination of IFNγ and YK5 (black bars) cells, and bound to the oligonucleotide, was detected through use of an anti-STAT1 antibody. Assays were performed in the absence or presence of 20 pmol of competitor oligonucleotide that contains either a wild-type or a mutated STAT consensus binding site using IFNγ-treated cells (dark grey bars). […] Results are expressed as mean absorbance values (OD450 nm) with SEM.
Activated STAT1 DNA binding assay. […] After HRP substrate addition, absorbance was read at 450 nm with a reference wavelength of 655 nm (Synergy4, Biotek, Winooski, Vt.). In this assay the absorbance is directly proportional to the quantity of DNA-bound transcription factor present in the sample. […] Results were expressed as mean absorbance values with SEM. […]

[2] = test system: Hsp70s expressed in the MRC-5 cells; assay: Hsp70 competition assay using YK55 beads, MRC-5 extracts; format: binding, human; conditions: MRC-5 normal cell extracts
Description: FIG. 14. YK5 has a higher affinity for tumor Hsp70s and selectively kills cancer cells. (a-c) Cells were treated with the indicated concentrations of inhibitors for the times presented, and metabolically viable cells by Alamar blue uptake as described in Methods (a). Molecular markers of apoptosis (PARP and caspase-3 cleavage) were analyzed in cells treated for 24 h with indicated concentrations of inhibitors, by western blotting (b, c). Morphology of cells treated for 24 h with vehicle or the indicated inhibitors was analyzed by light microscopy (c). (d) Extracts (500 μg) were incubated overnight with beads containing D-biotin (75 μM) or the indicated concentrations of YK55 added to 50 μl streptavidin beads. HS=heat shocked. (e) SKBr3 (200 μg) and MRC-5 (400 μg) extracts and recombinant human Hsp70 (2 μg) were incubated for 3 h with the indicated concentrations with YK5, followed by precipitation of Hsp70 complexes on YK55-beads (50 μM YK55 added to 50 μl streptavidin beads). Data obtained from three independent experiments were graphed (right). Points, mean; bars, s.d.
In a second experiment, the ability of soluble YK5 to compete YK55-binding to normal and cancer cell Hsp70 species were tested (FIG. 14e). […] Interaction of YK5 was even weaker with recombinant human Hsp70 (FIG. 14e).
Hsp70 Competition Assay Using the YK55 Beads. […]

`C=CC(=O)Nc1cc(N)nc(Sc2c(OC)nc(N3CCN(C)CC3)nc2OC)n1` [YK5, N-(6-amino-2-(4,6-dimethoxy-2-(4-methylpiperazin-1-yl)pyrimidin-5-ylthio)pyrimidin-4-yl)acrylamide] was tested, and the “DNA-binding efficacy of activated STAT1” value [1] was “increased its DNA-binding efficacy” and the “concentration necessary to observe displacement of Hsp70s from YK55-beads” value [2] was “exceeded 200 μM”.
